Assay results: patent US11911178B2, “System and method to detect and treat arrhythmogenic regions in atrial fibrillation” (Northwestern University, priority 2020, dated 2024)

System: atrial fibrillation
Assay: open chest epicardial electrogram mapping of atrial fibrillation in animals at baseline and after ROS scavenger (NAC) administration
Format: in vivo
Protocol: In an illustrative embodiment, the proposed method and system involve use of an electrogram to monitor a patient's heart characteristics. An electrode recording system can be used to receive and store baseline electrogram signals from the heart of the patient during sinus rhythm. As discussed in more detail below, mapping is performed based on the received electrogram signals to generate high resolution maps in multiple atrial regions of the patient. A reactive oxygen species scavenger (e.g., NAC) is then administered to the patient. The electrogram is used to measure various characteristics of the heart after administration of the ROS scavenger. These characteristics can include dominant frequency (DF), cycle length (CL), organization index (OI), fractionation index (FI), recurrence morphology percentage (Rec %), Shannon's entropy (ShEn), conduction velocity, and voltage. The monitored characteristics can also include the number and stability of rotational, focal, and wavelet activities in different atrial regions of the heart. The various atrial regions of the heart can include posterior left atrium (PLA), left atrial free wall (LAFW), left atrial appendage (LAA), posterior right atrium (PRA), right atrial free wall (RAFW), right atrial appendage (RAA), etc. In alternative embodiments, different heart regions may be used.
In an illustrative embodiment, the proposed system uses a computing system to perform calculation of percentage changes of AF characteristics at each electrogram electrode location at different time intervals subsequent to administration of the ROS scavenger. The percentage changes are based on the baseline readings from the electrogram (i.e., the readings received prior to administration of the ROS scavenger). For example, the calculations of percentage changes can be after 30 minutes, 1 hour, and 2 hours in one embodiment. Alternatively, different or additional times may be used, such as 45 minutes, 1.5 hours, 3 hours, 4 hours, etc. In some implementations, rebolus of the ROS scavenger administration may be performed in between the time periods.
Referring to FIG. 2B, a baseline measurement for each of a plurality of characteristics is obtained using the electrogram system in an operation 230. The baseline measurements are measured prior to administration of the ROS scavenger in an operation 235, and mapping of the various characteristics is performed based on the measured characteristics in an operation 240. Any of the characteristics described herein can be used. The system continues conducting measurements using the electrogram at various periods of time subsequent to administration of the ROS scavenger, such as 30 minutes, 1 hour, 2 hours, etc. The system also calculates the percentage change for each of the measured characteristics at each of the periods of time, as compared to the baseline measurements in an operation 245. Hotspots are identified for each measured characteristic based on the percentage changes in the operation 245. In one embodiment, the determined percentage changes are compared to a percentage change threshold to determine whether a given area is a hotspot. The percentage change threshold can be 5%, 8%, 10%, 20%, etc. depending on the implementation. Alternatively, instead of basing the determination on the percentage change, the determination of whether an area is a hotspot can be based on the amount of absolute change in the measured characteristic, and can vary for each characteristic. Based on the identified hotspots, the system also calculates the percentage of overlap among the various hotspots from each of the characteristics in an operation 250. The system maps the overlapping hotspots (based on the percentage of overlap) so that they can be visualized in an operation 255, and the overlapping hotspots are then targeted for treatment.
Experiments were conducted on animals using the techniques described herein. […]

`CC(=O)N[C@@H](CS)C(=O)O` [NAC, N-acetylcysteine] was tested, and the “mapping field showing hotspot overlap in >50% of the EGM measures” value (Animal 1, LAFW, 1 hour after administration) was 36%, the “mapping field showing hotspot overlap in >50% of the EGM measures” value (Animal 1, LAFW, 2 hours after administration) was 13% and the “mapping field showing hotspot overlap in >50% of the EGM measures” value (Animal 8, LAFW, 1 hour after administration) was 15%. For the same compound, the “mapping field showing hotspot overlap in >50% of the EGM measures” value (Animal 8, LAFW, (2) hours after administration) was 48%, the DF peak (LAFW and PLA, 1 hour after NAC, baseline peak 11.5 Hz, histogram of all 10 hearts) was 9 Hz and the DF peak (LAFW and PLA, 2 hours after NAC, baseline peak 11.5 Hz, histogram of all 10 hearts) was 7.5 Hz. The “stability of observed 360 degree rotations in activation maps” value (LAFW, after NAC administration) was “significantly decreased”, the DF peak (RAA, after 1 hr NAC, baseline peak 8.5 Hz) was 7.5 Hz and the rotational source (after NAC administration) was “reduced”. The “mapping field with overlap in more than 50% of the electrogram measurements” value (percentage change threshold 5%, Animal 1, 1 hour after administration) was 19%, the “mapping field with overlap in more than 50% of the electrogram measurements” value (percentage change threshold 5%, Animal 1, 2 hours after administration) was 27% and the “mapping field with overlap in more than 50% of the electrogram measurements” value (percentage change threshold 5%, Animal 8, 1 hour after administration) was 17%. For the same compound, the “mapping field with overlap in more than 50% of the electrogram measurements” value (percentage change threshold 5%, Animal 8, 2 hours after administration) was 47%, the “mapping field with overlap in more than 50% of the electrogram measurements” value (percentage change threshold 20%, Animal 1, after 1 hour) was 2% and the “mapping field with overlap in more than 50% of the electrogram measurements” value (percentage change threshold 20%, Animal 1, after 2 hours) was 7%. For the same compound, the “mapping field with overlap in more than 50% of the electrogram measurements” value (percentage change threshold 20%, Animal 8, after 1 hour) was 6% and the “mapping field with overlap in more than 50% of the electrogram measurements” value (percentage change threshold 20%, Animal 8, after 2 hours) was 29%.
